Assay results from patent publication US20200289450A1, “METHODS OF REDUCING OR PREVENTING OXIDATIVE MODIFICATION OF MEMBRANE POLYUNSATURATED FATTY ACIDS” (Amarin Pharmaceuticals Ireland Limited, priority 2013, published 2020).

Tests used:
[1] = tested on: human low density lipoprotein and model liposomes; settings: cited from earlier work
[2] = Glucose-induced membrane lipid peroxidation (LOOH), CHOD-iodide assay in MLVs (Example 4)
Description: Vitamin E (α-tocopherol) was also purchased from Sigma-Aldrich and prepared in ethanol at 1.0 mM (ϵ=3.06×10^4 M^−1 cm^−1 at 294 nm) just prior to experimental use. […] All test compounds were further diluted in ethanol or aqueous buffer as needed. Glucose was prepared in saline buffer (0.5 mM HEPES, 154 mM NaCl, pH 7.3) at 11.0 mM (200 mg/dL). CHOD-iodide color reagent (stock) was prepared, with slight modification, as described by from El-Saadani et al. (J. […] Prior to experimental use, the CHOD reagent was activated by adding 24 μM ethylenediaminetetraacetic acid (EDTA), 20 μM butylated hydroxytoluene (BHT), and 0.2% Triton X-100. Multilamellar vesicles (MLVs) were prepared as binary mixtures of DLPC (1.0 or 2.5 mg total phospholipid per sample) and cholesterol at a fixed cholesterol-to-phospholipid (C/P) mole ratio of 0.6:1. […] Aliquot volume was reduced with each successive time point to ensure that spectrophotometric readings were within the optimal adsorption range. […] Sample absorbances were then measured against a CHOD blank at 365 nm using a Beckman DU-640 spectrophotometer. The CHOD colorimetric assay is based on the oxidation of iodide (I^−) by lipid hydroperoxide (LOOH) to form triiodide (I3^−), the quantity of which is directly proportional to the amount of LOOH present in the lipid sample. […]

[3] = cited from earlier work
HMG-CoA reductase = molecular target: T1, HMG-CoA reductase (Homo sapiens, UniProt P04035); settings: metabolized by hepatic cytochrome P450; cited from earlier work
T1 sequence (P04035 1-888): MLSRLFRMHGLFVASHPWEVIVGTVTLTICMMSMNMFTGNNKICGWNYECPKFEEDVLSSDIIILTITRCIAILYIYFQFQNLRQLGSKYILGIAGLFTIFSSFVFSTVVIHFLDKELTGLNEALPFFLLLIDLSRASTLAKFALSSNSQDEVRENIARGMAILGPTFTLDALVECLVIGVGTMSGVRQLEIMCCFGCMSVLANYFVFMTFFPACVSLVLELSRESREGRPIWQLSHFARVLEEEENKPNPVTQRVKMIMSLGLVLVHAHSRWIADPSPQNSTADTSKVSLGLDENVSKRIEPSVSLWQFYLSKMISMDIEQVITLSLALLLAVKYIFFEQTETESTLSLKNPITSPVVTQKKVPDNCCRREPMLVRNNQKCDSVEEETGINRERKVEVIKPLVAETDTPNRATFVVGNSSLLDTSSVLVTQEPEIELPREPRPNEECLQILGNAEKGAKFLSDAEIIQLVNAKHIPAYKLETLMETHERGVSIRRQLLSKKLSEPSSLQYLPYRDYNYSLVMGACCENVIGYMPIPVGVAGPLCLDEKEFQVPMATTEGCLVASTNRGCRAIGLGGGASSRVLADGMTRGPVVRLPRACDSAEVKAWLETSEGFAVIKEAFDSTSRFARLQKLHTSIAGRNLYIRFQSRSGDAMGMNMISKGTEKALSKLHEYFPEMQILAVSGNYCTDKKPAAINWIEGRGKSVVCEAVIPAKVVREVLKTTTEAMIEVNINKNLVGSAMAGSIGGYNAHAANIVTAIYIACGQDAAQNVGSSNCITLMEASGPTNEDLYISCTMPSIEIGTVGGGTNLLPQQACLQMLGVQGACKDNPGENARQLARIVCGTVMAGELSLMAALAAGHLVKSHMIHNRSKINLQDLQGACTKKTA

[4] = tested on: human LDL (unfractionated); test: Copper-initiated oxidation of unfractionated LDL, TBARS (Example 6); settings: 1.0 μM to 10.0 μM
Description: (§1) An experiment to study the antioxidant effect of EPA in small dense LDL (“sdLDL”) was performed. EPA was purchased from Sigma-Aldrich (Saint Louis, Mo.) and solubilized in ethanol to 1 mM under nitrogen atmosphere. Vitamin E (α-tocopherol) was purchased from Sigma-Aldrich and prepared in ethanol at 1.0 mM (ϵ=3.06×10^4 M^−1 cm^−1 at 294 nm) just prior to experimental use. All test compounds were further diluted in ethanol or aqueous buffer as needed.
(§2) Venous blood was collected from healthy volunteers into vacutainer tubes containing sodium EDTA. Plasma was separated by centrifugation at 3000 g for 25 min at 4° C. and adjusted to a density of 1.020 g/mL with KBr. […] Sample TBARS concentrations were determined spectrophotometrically by measuring sample absorbances against a standard curve derived from the hydrolysis of 1,1,3,3-tetramethoxypropane.
(§3) Data are presented as mean±S.D. for (N) separate samples or treatment groups. Differences between groups were analyzed using the two-tailed, Student's t-test (for comparisons between only two groups) or ANOVA followed by Dunnett or Student-Newman-Keuls multiple comparisons post-hoc analysis (for comparisons between three or more groups). […]

human sdLDL = test: Copper-initiated sdLDL oxidation, TBARS (Example 6)
Description: as §1, §2, §3

[5] = Glucose- and peroxidation-induced cholesterol domain formation, small angle x-ray diffraction (Example 4); assay type: physicochemical
Description: The membrane structural effects of glucose and the various compounds examined in this study were measured at 0, 72, and 96 hour intervals. Membrane lipid vesicles were oriented for x-ray diffraction analysis as described by others (e.g., Herbette et al., Biophys. J., vol. 20(2), pages 245-272 (1977)). Briefly, a 100 μL aliquot (containing 250 μg MLV) was aspirated from each sample and transferred to a Lucite® sedimentation cell fitted with an aluminum foil substrate upon which a given sample could be collected by centrifugation. Samples were then loaded into a Sorvall AH-629 swinging bucket rotor (DuPont Corp., Wilmington, Del.) and centrifuged at 35,000 g, 5° C., for 90 min.
After centrifugal orientation, sample supernatants were aspirated and aluminum foil substrates, each supporting a single membrane pellet, were removed from the sedimentation cells. Sample pellets were dried for 5-10 min at ambient conditions, mounted onto curved glass supports, and placed in hermetically-sealed, brass or glass containers (for immediate analysis or temporary storage, respectively). All x-ray diffraction experiments were conducted at 20° C., 74% relative humidity. The latter was established by exposing membrane samples to saturated solutions of L-(+) […] (K2C4H4O6.½H2O). Samples were incubated at these conditions for at least 1 hour prior to experimental analysis.
Oriented membrane samples were aligned at grazing incidence with respect to a collimated, mono-chromatic CuKα x-ray beam (Kα1 and Kα2 unresolved; λ=1.54 Å) produced by a Rigaku Rotaflex RU-200, high-brilliance microfocus generator (Rigaku-MSC, The Woodlands, Tex.) as previously described (Mason et al, Biophys. J., vol. 55(4), pages 769-778 (1989)). […]
The d-space for any given membrane multibilayer is a measurement of the unit cell periodicity of the membrane lipid bilayer (e.g., the distance from the center of one lipid bilayer to the next including surface hydration), and is calculated from Bragg's Law, hλ=2dsinθ, where h is the diffraction order, λ is the wavelength of the x-ray radiation (1.54 Å), d is the membrane lipid bilayer unit cell periodicity, and θ is the Bragg angle equal to one-half the angle between the incident beam and scattered beam.
The presence of cholesterol domains in a given membrane sample results in the production of distinct Bragg (diffraction) peaks having singular periodicity values of 34 and 17 Å (typically referred to as first- and second-order cholesterol domain peaks). Under the specific temperature and relative humidity conditions established for these experiments, the second-order, 17 Å cholesterol domain peak was well-delineated from other, neighboring cholesterol and phospholipid diffraction peaks and was thus used to quantitate relative cholesterol domain peak intensity. […]

For CC(C)c1c(C(=O)Nc2ccccc2O)c(-c2ccccc2)c(-c2ccc(F)cc2)n1CC[C@@H](O)C[C@@H](O)CC(=O)O [ATM, Atorvastatin ortho- (o-) hydroxy (active) metabolite], the antioxidant properties [1] is given as “potent antioxidant properties” and the “antioxidant effects (LOOH formation)” value ([2]; each at 1.0 μM, glucose 200 mg/dL, 96 hours) is given as “separate and potent antioxidant effects”.

In the case of CC(C)c1c(C(=O)Nc2ccccc2)c(-c2ccccc2)c(-c2ccc(F)cc2)n1CC[C@@H](O)C[C@@H](O)CC(=O)O [atorvastatin], the “circulating levels of chlorotyrosine” value ([3]; 10 mg, 12 weeks) is listed as “significantly reduce”, the “circulating levels of dityrosine” value ([3]; 10 mg, 12 weeks) is listed as “significantly reduce” and the “circulating levels of nitrotyrosine” value ([3]; 10 mg, 12 weeks) is listed as “significantly reduce”. The “levels of oxidized lipids associated with all apoB100-containing lipid particles” value ([3]; 80 mg, 16 weeks, 2,341 patients) was “significant reduction” and the “share of circulating HMG-CoA reductase inhibitory activity accounted for by active metabolites” value (HMG-CoA reductase) was “approximately 70%”.

With Cc1c(C)c2c(c(C)c1O)CC[C@@](C)(CCC[C@H](C)CCC[C@H](C)CCCC(C)C)O2 [vitamin E, α-tocopherol] the LDL oxidation [4] was “did not inhibit LDL oxidation at any concentration”, the sdLDL oxidation (human sdLDL; 1.0 μM to 10.0 μM) was “did not inhibit sdLDL oxidation except at the highest concentration” and the “reduction of TBARS levels compared to vehicle-treated controls” value (human sdLDL; sdLDL, 10.0 μM, 2 hr after 10 μM CuSO4) was 26%. For the same molecule, the “effect on LOOH formation / lipid peroxidation (FIG. 3)” value ([2]; 72- and 96-hour time points, glucose, 1:30 drug-to-phospholipid mole ratio) was “no significant effect”, the “effect on membrane structure compared to control samples” value ([5]; 0 hours (start of experiment), glucose 200 mg/dL, 1:30 drug-to-phospholipid mole ratio) was “no appreciable effect” and the “cholesterol crystalline domain peaks (d-space 34 Å)” value ([5]; 72 hours oxidative conditions, glucose 200 mg/dL, 1:30) was “observed”. The cholesterol domain peaks ([5]; 96 hours oxidative conditions, glucose 200 mg/dL, 1:30) was “disproportionately greater” and the “effect on cholesterol domain formation compared to control” value ([5]; any experimental time point (FIG. 5)) was “no significant effect”.
